Results published in the NIST ThermoML archive (doi:10.1021/je800325d).

Tests used:
[1] = 101.33 kPa, Liquid; for viscosity: Capillary tube (Ostwald / Ubbelohde) method
[2] = refractive index (Na D-line) (dimensionless); details: 101.33 kPa, Liquid, Standard Abbe refractometry
[3] = xn = mol fraction of the nth substance listed; details: 101 kPa, Liquid
[4] = refractive index (Na D-line) (dimensionless); xn = mol fraction of the nth substance listed; details: 101 kPa, Liquid

Cc1cccc(C)c1 [1,3-dimethylbenzene]
Details | refractive index, [2] | viscosity, [1] [mPa·s]
303.15 K | 1.492 | 0.557
313.15 K | 1.4901 | 0.508

[1], Pycnometric method
Details | mass density [kg/m3]
303.15 K | 855.3
313.15 K | 847.1

Cc1ccccc1C [1,2-dimethylbenzene]
Details | refractive index, [2] | viscosity, [1] [mPa·s]
303.15 K | 1.5001 | 0.695
313.15 K | 1.4981 | 0.621

[1], Pycnometric method
Details | mass density [kg/m3]
303.15 K | 871.5
313.15 K | 863.3

Cc1ccc(C)cc1 [1,4-dimethylbenzene]
Details | refractive index, [2] | viscosity, [1] [mPa·s]
303.15 K | 1.4911 | 0.566
313.15 K | 1.4902 | 0.517

[1], Pycnometric method
Details | mass density [kg/m3]
303.15 K | 852.1
313.15 K | 843.5

CCc1ccccc1 [ethylbenzene]
Details | mass density, [1] [kg/m3] | refractive index, [2] | viscosity, [1] [mPa·s]
303.15 K | 857.6 | 1.491 | 0.597
313.15 K | 849.2 | 1.4891 | 0.538

CC(=O)OCCC(C)C [3-methylbutyl ethanoate] + Cc1ccccc1C
Details | mass density, [3] [kg/m3] | refractive index, [4] | viscosity, [3] [mPa·s]
303.15 K, x1 = 0.0856 | 869.7 | 1.4903 | 0.705
303.15 K, x1 = 0.1739 | 869.5 | 1.4806 | 0.707
303.15 K, x1 = 0.2554 | 868.2 | 1.4721 | 0.709
303.15 K, x1 = 0.3538 | 867.8 | 1.462 | 0.712
303.15 K, x1 = 0.445 | 867.4 | 1.453 | 0.714
303.15 K, x1 = 0.5481 | 866 | 1.4436 | 0.718
303.15 K, x1 = 0.6564 | 865 | 1.4319 | 0.722
303.15 K, x1 = 0.7531 | 864.1 | 1.4217 | 0.726
303.15 K, x1 = 0.8542 | 863.7 | 1.4113 | 0.731
303.15 K, x1 = 0.9538 | 863.2 | 1.4018 | 0.738
313.15 K, x1 = 0.0856 | 861.4 | 1.488 | 0.622
313.15 K, x1 = 0.1739 | 860.8 | 1.4779 | 0.623
313.15 K, x1 = 0.2554 | 859.8 | 1.4695 | 0.623
313.15 K, x1 = 0.3538 | 859.1 | 1.458 | 0.624
313.15 K, x1 = 0.445 | 858.4 | 1.4486 | 0.625
313.15 K, x1 = 0.5481 | 856.7 | 1.4375 | 0.627
313.15 K, x1 = 0.6564 | 855.8 | 1.4258 | 0.631
313.15 K, x1 = 0.7531 | 855.1 | 1.4157 | 0.635
313.15 K, x1 = 0.8542 | 854.7 | 1.4062 | 0.64
313.15 K, x1 = 0.9538 | 853.9 | 1.3961 | 0.646

CC(=O)OCCC(C)C [3-methylbutyl ethanoate]
Details | refractive index, [2] | viscosity, [1] [mPa·s]
303.15 K | 1.3959 | 0.741
313.15 K | 1.3945 | 0.649

[1], Pycnometric method
Details | mass density [kg/m3]
303.15 K | 862.3
313.15 K | 852.8

COC(=O)c1ccccc1 [methyl benzoate] + Cc1cccc(C)c1
[3]
Details | mass density, 303.15 K [kg/m3] | mass density, 313.15 K [kg/m3] | viscosity, 303.15 K [mPa·s] | viscosity, 313.15 K [mPa·s]
x1 = 0.1071 | 878.7 | 870.6 | 0.609 | 0.544
x1 = 0.203 | 900.2 | 891.9 | 0.672 | 0.598
x1 = 0.3034 | 922.3 | 914.2 | 0.739 | 0.654
x1 = 0.3924 | 941.4 | 933.2 | 0.824 | 0.729
x1 = 0.4909 | 962.7 | 954.4 | 0.923 | 0.804
x1 = 0.5978 | 985.7 | 977.1 | 1.023 | 0.892
x1 = 0.6867 | 1004.6 | 995.8 | 1.134 | 0.978
x1 = 0.8125 | 1029.6 | 1021.9 | 1.316 | 1.122
x1 = 0.8734 | 1043.8 | 1034.8 | 1.403 | 1.191
x1 = 0.9518 | 1059.6 | 1050.7 | 1.565 | 1.317

refractive index, [4], Standard Abbe refractometry
Details | x1 = 0.1071 | x1 = 0.203 | x1 = 0.3034 | x1 = 0.3924 | x1 = 0.4909 | x1 = 0.5978 | x1 = 0.6867 | x1 = 0.8125 | x1 = 0.8734 | x1 = 0.9518
303.15 K | 1.4933 | 1.4943 | 1.4954 | 1.4962 | 1.4973 | 1.5004 | 1.5033 | 1.5069 | 1.5093 | 1.5107
313.15 K | 1.4911 | 1.4919 | 1.4927 | 1.4933 | 1.4941 | 1.496 | 1.4987 | 1.502 | 1.504 | 1.5064

CC(=O)OCCC(C)C [3-methylbutyl ethanoate] + Cc1ccc(C)cc1
[3]
Details | mass density, 303.15 K [kg/m3] | mass density, 313.15 K [kg/m3] | viscosity, 303.15 K [mPa·s] | viscosity, 313.15 K [mPa·s]
x1 = 0.096 | 852.4 | 844.8 | 0.573 | 0.517
x1 = 0.1713 | 853.6 | 845.9 | 0.584 | 0.525
x1 = 0.2823 | 854.5 | 846.3 | 0.6 | 0.537
x1 = 0.3819 | 856.7 | 847.5 | 0.617 | 0.549
x1 = 0.4503 | 857.8 | 848.7 | 0.628 | 0.556
x1 = 0.5438 | 858.1 | 849.6 | 0.645 | 0.57
x1 = 0.6472 | 858.7 | 850.1 | 0.664 | 0.584
x1 = 0.7467 | 859.7 | 850.7 | 0.684 | 0.6
x1 = 0.8487 | 860.1 | 851.3 | 0.704 | 0.615
x1 = 0.9398 | 861 | 851.6 | 0.722 | 0.634

refractive index, [4], Standard Abbe refractometry
Details | x1 = 0.096 | x1 = 0.1713 | x1 = 0.2823 | x1 = 0.3819 | x1 = 0.4503 | x1 = 0.5438 | x1 = 0.6472 | x1 = 0.7467 | x1 = 0.8487 | x1 = 0.9398
303.15 K | 1.4821 | 1.4749 | 1.4645 | 1.4554 | 1.4495 | 1.4397 | 1.4293 | 1.4193 | 1.41 | 1.4017
313.15 K | 1.4811 | 1.474 | 1.4621 | 1.4523 | 1.4454 | 1.4356 | 1.4248 | 1.4147 | 1.4056 | 1.3984

COC(=O)c1ccccc1 [methyl benzoate]
Details | refractive index, [2] | viscosity, [1] [mPa·s]
303.15 K | 1.5127 | 1.679
313.15 K | 1.5083 | 1.414

[1], Pycnometric method
Details | mass density [kg/m3]
303.15 K | 1078.8
313.15 K | 1069.2
